# Paper PMC10455244, “Alpha-Mangostin: A Potent Inhibitor of TRPV3 and Pro-Inflammatory Cytokine Secretion in Keratinocytes” (International Journal of Molecular Sciences, 2023)
# Molecular target: T1, TRPV3 (G573S) (Homo sapiens, UniProt Q8NET8, G573S)
# T1 construct: host or cells: HEK 293T (transient transfection, pEGFP-N1 co-transfected as a marker)
# T1 sequence (Q8NET8 1-790 G573S): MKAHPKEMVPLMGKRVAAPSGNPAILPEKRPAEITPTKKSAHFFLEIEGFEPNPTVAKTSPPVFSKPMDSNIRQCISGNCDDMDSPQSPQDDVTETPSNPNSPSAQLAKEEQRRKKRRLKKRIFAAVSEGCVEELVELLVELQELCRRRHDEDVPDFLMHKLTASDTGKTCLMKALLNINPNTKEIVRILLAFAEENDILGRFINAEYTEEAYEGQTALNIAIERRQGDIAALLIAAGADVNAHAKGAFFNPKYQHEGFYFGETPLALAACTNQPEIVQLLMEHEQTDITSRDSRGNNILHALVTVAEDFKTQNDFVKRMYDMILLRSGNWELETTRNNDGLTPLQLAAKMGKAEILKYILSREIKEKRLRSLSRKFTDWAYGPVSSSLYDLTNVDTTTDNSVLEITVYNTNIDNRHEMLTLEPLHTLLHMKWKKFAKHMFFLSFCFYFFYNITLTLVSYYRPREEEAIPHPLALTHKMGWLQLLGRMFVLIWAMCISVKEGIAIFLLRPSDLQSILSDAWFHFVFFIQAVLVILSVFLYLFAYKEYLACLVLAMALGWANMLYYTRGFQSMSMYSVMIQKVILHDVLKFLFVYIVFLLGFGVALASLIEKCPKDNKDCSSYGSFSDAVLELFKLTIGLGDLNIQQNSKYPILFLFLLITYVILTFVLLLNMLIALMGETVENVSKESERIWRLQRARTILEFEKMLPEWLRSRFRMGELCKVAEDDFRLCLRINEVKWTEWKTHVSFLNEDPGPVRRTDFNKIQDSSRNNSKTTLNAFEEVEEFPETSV
# Test: Fura-2 calcium imaging, spontaneous Ca2+ increase in TRPV3 (G573S)-expressing HEK 293T cells
# Type: cell-based
# Settings: 1 µM
# Description: Figure 4 Alpha-mangostin inhibited the activity of hyperactive TRPV3 mutant channels and rescued mutation-induced cell death. (A) Alpha-mangostin inhibited the channel current in representative TRPV3 (G573S)- and TRPV3 (G573C)-expressing HEK 293T cells. […] Currents were normalized to the response at −100 mV before adding alpha-mangostin. (C) Alpha-mangostin inhibited TRPV3-mediated intracellular calcium increase in TRPV3 (G573S)-expressing HEK 293T cells. […] The bar graph on the right summarizes the change in the intracellular calcium rise inhibited by alpha-mangostin. […]
# Subsequently, the effects of alpha-mangostin on the activities of the mutated channels were further evaluated using intracellular calcium measurements.
# Fura-2 AM (Thermo Fisher Scientific) was utilized as a fluorescent indicator to measure calcium signal, as described previously. […] To measure the cytosolic Ca^2+ level, a sequential excitation of Fura-2 is performed at 340 nm and 380 nm; then, the emission signals resulting from each excitation wavelength are measured and the ratio of these signals is calculated. […] Samples were excited using a wavelength of 380 nm for 20 ms, followed by 340 nm for 100 ms, and fluorescence at 510 nm was recorded. Recorded data were then analyzed using NIS-Element AR Version 5.00.00 (Nikon Instruments, Melville, NY, USA). […]
smiles,measurement,value
COc1c(O)cc2oc3cc(O)c(CC=C(C)C)c(O)c3c(=O)c2c1CC=C(C)C [Alpha-mangostin],Effect on spontaneous intracellular calcium increase,potently attenuated
